Reference: ChEMBL document CHEMBL1148763 (J Med Chem, 2007)
pIC50: −log10 of the molar value.

Target: T1, Dihydrofolate reductase (Bacillus anthracis, UniProt Q81R22)
T1 sequence (Q81R22 whole entry): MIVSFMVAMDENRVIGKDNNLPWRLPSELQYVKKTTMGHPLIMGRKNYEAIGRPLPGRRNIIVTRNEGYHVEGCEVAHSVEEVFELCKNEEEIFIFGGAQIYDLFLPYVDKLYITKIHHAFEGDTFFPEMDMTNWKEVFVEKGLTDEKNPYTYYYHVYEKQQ
Assay: Inhibition of Bacillus anthracis DHFR

Structure (SMILES): CN(c1ccc(C(=O)NC(CCC(=O)O)C(=O)O)cc1)c1cnc2nc(N)nc(N)c2n1 (stereo unspecified)
- pIC50: 7.82
